Measured values from publication PMC9226124, “Macrocycle-stabilization of its interaction with 14-3-3 increases plasma membrane localization and activity of CFTR” (Nature Communications, 2022).
“And” between values parts separate entries of the source, which are not always exact repeats. Equal entries are not always repeated.

Target: T1, 14-3-3β/CFTRpS753pS768 complex (Homo sapiens, UniProt P13569+P31946)
T1 construct: His6 (cleaved yes); made in house; peptide synthetic
Assay: FP assay, 14-3-3β titration at constant compound concentration (apparent KD)
Format: binding
Details: for Polarization: FC 100 uM, peptide 100 nM; for Polarization / FP signal, 14-3-3β titration / FP signal: replicates; for FP signal, 14-3-3β titration / FP signal: compound 100 μM; for Fluorescence polarization signal, 14-3-3β titration: FC-A (100 μM)
Description: FC-A (100 µM) was added as a positive control and DMSO as the negative control. […] Background polarization was subtracted from all values, n = 3 technical replicates. […] Source data are provided as a Source Data file. […]
The FITC-labeled peptides were dissolved in FP buffer (10 mM HEPES pH 7.4, 150 mM NaCl, 0.1% Tween20, 1 mg/mL BSA) to a final concentration of 100 nM or 10 nM. […] The dilution series were made in 384 Corning Black Round Bottom well plates and their polarization was measured with a Tecan Infinite F500 plate reader (ex. = 485 nm, em. = 535 nm). The method of fitting of the curves was: “log(agonist) vs. response – Variable slope (four parameters)” from GraphPad Prism. The equation is Y = Bottom + (Top-Bottom)/(1 + 10^((LogEC50-X)*HillSlope)).
from the hit validation library.
f the compound, 100 µM FC-A, or both compound and FC-A, 100 µM each. Background polarization was subtracted f
rom all values, n=3 technical replicates.
Source data are provided as a Source Data file.

T1 sequence (P31946 whole entry): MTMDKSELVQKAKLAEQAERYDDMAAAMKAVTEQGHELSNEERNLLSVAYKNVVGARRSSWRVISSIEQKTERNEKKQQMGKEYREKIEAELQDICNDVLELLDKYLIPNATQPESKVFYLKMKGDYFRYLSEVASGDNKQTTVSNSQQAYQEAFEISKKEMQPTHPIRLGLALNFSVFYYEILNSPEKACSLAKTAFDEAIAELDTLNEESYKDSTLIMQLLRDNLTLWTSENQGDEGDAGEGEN
T1 sequence (P13569 747-774 limits assumed): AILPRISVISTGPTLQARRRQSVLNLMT

C=CC(C)(C)OC[C@H]1O[C@H](O[C@@H]2C3=C([C@H](C)COC(C)=O)C[C@H](O)[C@]3(C)/C=C3/[C@@H](COC)CC[C@H]3[C@@H](C)[C@H]2O)[C@H](O)[C@@H](OC(C)=O)[C@@H]1O [FC-A, fusicoccin A, reference compound]
Polarization (14-3-3β 6.10352e-8 M, listed as FC): 24 and 25
FP signal, 14-3-3β titration (14-3-3β 6.10352e-8 M): 7.333 and 6.333 (2×)
FP signal (14-3-3β 7.12891e-8 M): 10 (2×) and 11
Polarization (14-3-3β 1.2207e-7 M, listed as FC): 28 and 30
FP signal, 14-3-3β titration (14-3-3β 1.2207e-7 M): 5.333 and 9.333 and 6.333
FP signal (14-3-3β 1.42578e-7 M): 15 and 16 and 14
Polarization (14-3-3β 2.44141e-7 M): 35
FP signal, 14-3-3β titration (14-3-3β 2.44141e-7 M): 9.333 and 10.3333 and 5.333
FP signal (14-3-3β 2.85156e-7 M): 24 and 22 (2×)
Polarization (14-3-3β 4.88281e-7 M, listed as FC): 48 and 46
FP signal, 14-3-3β titration (14-3-3β 4.88281e-7 M): 9.333 (2×) and 12.3333
FP signal (14-3-3β 5.70313e-7 M): 40 (2×) and 33
Polarization (14-3-3β 9.76563e-7 M, listed as FC): 68 and 64 and 69
FP signal, 14-3-3β titration (14-3-3β 9.76563e-7 M): 18.3333 and 11.3333 and 16.3333
FP signal (14-3-3β 1.14063e-6 M): 66 and 63 and 57
Polarization (14-3-3β 1.95313e-6 M, listed as FC): 98 and 96 and 97
FP signal, 14-3-3β titration (14-3-3β 1.95313e-6 M): 32.3333 and 30.3333 and 31.3333
FP signal (14-3-3β 2.28125e-6 M): 97 and 94 and 86
Polarization (14-3-3β 3.90625e-6 M, listed as FC): 135 and 137
FP signal, 14-3-3β titration (14-3-3β 3.90625e-6 M): 47.3333 (2×) and 44.3333
FP signal (14-3-3β 4.5625e-6 M): 137 and 131 and 124
Polarization (14-3-3β 7.8125e-6 M, listed as FC): 175 and 176
FP signal, 14-3-3β titration (14-3-3β 7.8125e-6 M): 71.3333 and 69.3333 and 64.3333
FP signal (14-3-3β 9.125e-6 M): 171 and 164 and 159
Polarization (14-3-3β 1.5625e-5 M, listed as FC): 212 and 209
FP signal, 14-3-3β titration (14-3-3β 1.5625e-5 M): 98.3333 and 94.3333 (2×)
FP signal (14-3-3β 1.825e-5 M): 202 and 191 and 192
Polarization (14-3-3β 3.125e-5 M, listed as FC): 234 and 235 and 231
FP signal, 14-3-3β titration (14-3-3β 3.125e-5 M): 123.333 and 117.333 and 124.333
FP signal (14-3-3β 3.65e-5 M): 216 and 213 and 212
Polarization (14-3-3β 6.25e-5 M, listed as FC): 246 and 249 and 248
FP signal, 14-3-3β titration (14-3-3β 6.25e-5 M): 146.333 and 138.333 and 142.333
FP signal (14-3-3β 7.3e-5 M): 227 and 226 and 224
Polarization (14-3-3β 0.000125 M, listed as FC): 256 and 254
FP signal, 14-3-3β titration (14-3-3β 0.000125 M): 152.333 and 153.333 and 150.333
FP signal (14-3-3β 0.000146 M): 232 and 230 and 229
Polarization (14-3-3β 0.00025 M, listed as FC): 260 and 261 and 258
FP signal, 14-3-3β titration (14-3-3β 0.00025 M): 165.333 and 161.333 and 167.333
FP signal, 14-3-3β titration (14-3-3β 0.0005 M): 177.333 and 174.333 and 175.333
Fluorescence polarization signal, 14-3-3β titration (14-3-3β concentration 119.2 pM): 3.333 and 5.333
Fluorescence polarization signal, 14-3-3β titration (14-3-3β concentration 238.4 pM): 3.333 and 4.333 and 2.333
Fluorescence polarization signal, 14-3-3β titration (14-3-3β concentration 476.8 pM): 4.333 and 2.333
Fluorescence polarization signal, 14-3-3β titration (14-3-3β concentration 953.7 pM): 4.333 and 6.333
Fluorescence polarization signal, 14-3-3β titration (14-3-3β concentration 6.10352e-8 M): 7.333 and 6.333
Fluorescence polarization signal, 14-3-3β titration (14-3-3β concentration 1.2207e-7 M): 5.333 and 9.333 and 6.333
Fluorescence polarization signal, 14-3-3β titration (14-3-3β concentration 2.44141e-7 M): 9.333 and 10.3333 and 5.333
Fluorescence polarization signal, 14-3-3β titration (14-3-3β concentration 4.88281e-7 M): 9.333 and 12.3333
Fluorescence polarization signal, 14-3-3β titration (14-3-3β concentration 9.76563e-7 M): 18.3333 and 11.3333 and 16.3333
Fluorescence polarization signal, 14-3-3β titration (14-3-3β concentration 1.95313e-6 M): 32.3333 and 30.3333 and 31.3333
Fluorescence polarization signal, 14-3-3β titration (14-3-3β concentration 3.90625e-6 M): 47.3333 and 44.3333
Fluorescence polarization signal, 14-3-3β titration (14-3-3β concentration 7.8125e-6 M): 71.3333 and 69.3333 and 64.3333
Fluorescence polarization signal, 14-3-3β titration (14-3-3β concentration 1.5625e-5 M): 98.3333 and 94.3333
Fluorescence polarization signal, 14-3-3β titration (14-3-3β concentration 3.125e-5 M): 123.333 and 117.333 and 124.333
Fluorescence polarization signal, 14-3-3β titration (14-3-3β concentration 6.25e-5 M): 146.333 and 138.333 and 142.333
Fluorescence polarization signal, 14-3-3β titration (14-3-3β concentration 0.000125 M): 152.333 and 153.333 and 150.333
Fluorescence polarization signal, 14-3-3β titration (14-3-3β concentration 0.00025 M): 165.333 and 161.333 and 167.333
Fluorescence polarization signal, 14-3-3β titration (14-3-3β concentration 0.0005 M): 177.333 and 174.333 and 175.333
